# Assays:
# Adrenergic α1D = Adrenergic α1D (Homo sapiens, UniProt P25100); experiment: Eurofins panel 203400; type: binding
# Glutamate, Kainate = experiment: Eurofins panel 232700; type: binding, rat; settings: 10 µM
# Adenosine A3 = Adenosine A3 (Homo sapiens, UniProt P0DMS8); experiment: Eurofins panel 200720; type: binding
# fibroblasts = experiment: RNASeq transcriptome analysis, fibroblasts; type: cell-based, human; settings: 24 hrs of treatment
# lysyl oxidases = experiment: Time-dependency of inhibition (pre-incubation times); type: biochemical; design: Fig. 2B activity: scale not given here
# Text: PXS-4787 competes with a model substrate (putrescine) for the LOX binding site (Fig. 2d). The allylamine of PXS-4787 interacts with the co-factor of the enzyme and elicits mechanism-based inhibition (Fig. 2e). Through careful optimization, and in contrast to BAPN, PXS-4787 selectivity targets lysyl oxidases and is neither an inhibitor of, nor a substrate for, related oxidases (Fig. 2f, g and Supplementary Table S1). Furthermore, PXS-4787 was clean when profiled in a broad panel of macromolecular targets using enzyme and radioligand binding assays (LeadProfilingScreen, Eurofins CEREP Panlabs, 68 assays, test concentration 10 µM; Supplementary Data S1).
# Data are expressed as mean ± SEM. Subsequent statistical analysis was performed with unpaired two-sided Student’s t tests. *p < 0.05, **p < 0.01, ***p < 0.001and ****p < 0.0001. Source data are provided as a Source Data file.
# The measurement of the enzymatic activity of all lysyl oxidase family members was based on the detection of hydrogen peroxide with an Amplex-Red oxidation assay, as previously described; miniaturized in 384 well formats, with the appropriate combination of substrate and assay buffer for each individual enzyme. After a 30 min pre-incubation of the enzyme at 37 °C with the test compound (or with different incubation times for the time-dependency assay), one volume of reaction mixture containing 120 μM Amplex Red (AR) (Life Technologies), 1.5 U/mL horseradish peroxidase (HRP) (Sigma-Aldrich) and the specific substrate was added to each sample. The relative fluorescence units (RFU) were then measured every 2.5 min for 30 min at 37 °C, excitation 565 nm and emission 590, on a BMG Clariostar Microplate Reader. All the substrates were used at concentrations corresponding to their Km towards the corresponding enzyme, or with a range of different concentrations for the substrate competition experiments.
# [1] = system: Calcium Channel L-Type, Benzothiazepine; experiment: Eurofins panel 214510; type: binding, rat; settings: 10 µM
# Potassium Channel [KA] = experiment: Eurofins panel 265510; type: binding, rat; settings: 30 µM
# Vasopressin V1A = Vasopressin V1A (Homo sapiens, UniProt P37288); experiment: Eurofins panel 287530; type: binding
# hERG potassium channel = hERG potassium channel (Homo sapiens, UniProt Q12809); experiment: Eurofins panel 265910; type: binding; settings: probe [3H]Dofetilide
# Sequence of hERG potassium channel (Q12809 whole entry): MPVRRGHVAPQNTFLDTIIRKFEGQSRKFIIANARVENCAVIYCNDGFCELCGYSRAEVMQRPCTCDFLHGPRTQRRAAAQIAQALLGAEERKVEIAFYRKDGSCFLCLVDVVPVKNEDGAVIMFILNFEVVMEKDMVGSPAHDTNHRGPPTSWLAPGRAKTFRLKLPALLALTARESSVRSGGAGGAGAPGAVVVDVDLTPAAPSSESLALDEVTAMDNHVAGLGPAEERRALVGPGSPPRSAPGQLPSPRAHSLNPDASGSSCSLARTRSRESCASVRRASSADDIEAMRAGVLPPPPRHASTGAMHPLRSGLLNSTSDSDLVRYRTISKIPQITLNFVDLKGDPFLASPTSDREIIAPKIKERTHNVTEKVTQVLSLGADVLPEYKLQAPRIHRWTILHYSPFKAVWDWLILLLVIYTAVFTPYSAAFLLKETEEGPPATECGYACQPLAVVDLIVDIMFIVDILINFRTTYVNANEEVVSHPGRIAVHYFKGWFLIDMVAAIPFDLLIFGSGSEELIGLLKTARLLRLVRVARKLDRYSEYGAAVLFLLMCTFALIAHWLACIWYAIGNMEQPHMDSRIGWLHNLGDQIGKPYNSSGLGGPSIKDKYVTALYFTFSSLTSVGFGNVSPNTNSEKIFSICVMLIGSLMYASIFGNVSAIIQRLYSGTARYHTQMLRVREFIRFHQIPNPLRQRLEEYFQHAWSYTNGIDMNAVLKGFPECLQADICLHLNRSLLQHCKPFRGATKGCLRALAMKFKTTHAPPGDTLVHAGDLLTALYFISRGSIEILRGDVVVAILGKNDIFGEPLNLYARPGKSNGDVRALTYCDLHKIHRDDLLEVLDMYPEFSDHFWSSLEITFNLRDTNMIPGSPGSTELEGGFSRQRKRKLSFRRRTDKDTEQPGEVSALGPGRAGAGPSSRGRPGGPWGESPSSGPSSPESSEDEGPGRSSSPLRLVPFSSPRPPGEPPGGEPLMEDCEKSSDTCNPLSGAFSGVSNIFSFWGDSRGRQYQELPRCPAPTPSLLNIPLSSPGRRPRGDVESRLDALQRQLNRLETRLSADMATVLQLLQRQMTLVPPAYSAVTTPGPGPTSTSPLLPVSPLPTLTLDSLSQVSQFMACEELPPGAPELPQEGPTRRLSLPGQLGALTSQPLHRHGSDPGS
# Sequence of Adenosine A3 (P0DMS8 whole entry): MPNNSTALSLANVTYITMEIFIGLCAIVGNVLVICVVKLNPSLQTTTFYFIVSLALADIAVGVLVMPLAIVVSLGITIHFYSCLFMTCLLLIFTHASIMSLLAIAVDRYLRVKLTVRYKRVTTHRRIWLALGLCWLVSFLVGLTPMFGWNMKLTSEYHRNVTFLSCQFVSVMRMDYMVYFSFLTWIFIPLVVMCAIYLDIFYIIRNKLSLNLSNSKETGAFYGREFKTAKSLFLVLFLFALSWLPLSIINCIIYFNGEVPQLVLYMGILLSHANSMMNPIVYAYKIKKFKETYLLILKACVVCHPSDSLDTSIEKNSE
# Sequence of Adrenergic α1D (P25100 whole entry): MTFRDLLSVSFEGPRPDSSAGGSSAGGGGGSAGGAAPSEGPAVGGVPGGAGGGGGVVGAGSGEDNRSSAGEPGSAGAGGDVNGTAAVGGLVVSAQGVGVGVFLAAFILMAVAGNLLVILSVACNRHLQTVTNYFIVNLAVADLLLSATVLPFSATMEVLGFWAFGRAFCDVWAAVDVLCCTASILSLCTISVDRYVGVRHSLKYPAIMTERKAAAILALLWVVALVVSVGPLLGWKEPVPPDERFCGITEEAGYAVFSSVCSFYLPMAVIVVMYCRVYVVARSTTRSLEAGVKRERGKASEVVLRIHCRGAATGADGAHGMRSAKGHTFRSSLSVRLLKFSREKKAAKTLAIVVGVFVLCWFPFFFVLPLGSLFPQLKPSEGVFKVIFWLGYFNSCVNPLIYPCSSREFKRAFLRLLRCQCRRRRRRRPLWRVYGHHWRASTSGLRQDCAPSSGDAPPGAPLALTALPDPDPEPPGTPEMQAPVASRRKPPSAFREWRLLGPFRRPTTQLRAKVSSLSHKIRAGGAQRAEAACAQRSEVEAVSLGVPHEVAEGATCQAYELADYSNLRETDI
# Sequence of Vasopressin V1A (P37288 whole entry): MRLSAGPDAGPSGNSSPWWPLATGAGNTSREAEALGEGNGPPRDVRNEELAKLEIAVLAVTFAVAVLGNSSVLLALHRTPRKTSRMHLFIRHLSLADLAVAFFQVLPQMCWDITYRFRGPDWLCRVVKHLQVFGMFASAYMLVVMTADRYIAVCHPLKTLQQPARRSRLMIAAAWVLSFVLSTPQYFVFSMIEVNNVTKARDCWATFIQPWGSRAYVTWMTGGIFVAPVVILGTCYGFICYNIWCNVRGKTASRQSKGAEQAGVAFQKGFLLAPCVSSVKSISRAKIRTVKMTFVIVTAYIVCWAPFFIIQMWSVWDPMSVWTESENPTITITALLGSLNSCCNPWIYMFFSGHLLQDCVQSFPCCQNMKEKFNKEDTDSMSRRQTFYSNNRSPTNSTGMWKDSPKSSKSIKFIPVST
compound,measurement,setting,value
NC/C=C(\F)CS(=O)(=O)c1ccccc1 [PXS-4787],inhibition at 10 µM,Adrenergic α1D,-1%
same,% Inh.,"Glutamate, Kainate",16%
same,inhibition at 10 µM,Adenosine A3,4%
same,Log2 fold change ACTA2-AS1,fibroblasts,-3.268
same,Log2 fold change GAL,fibroblasts,2.787
same,Log2 fold change ICOSLG,fibroblasts,1.738
same,Log2 fold change TMEM88,fibroblasts,2.374
same,potency versus pre-incubation time,lysyl oxidases,increased potency upon longer pre-incubation times
same,Fig. 2B activity,"lysyl oxidases; 1.69333e-10, pre-incubation 0 min",106.286
same,Fig. 2B activity,"lysyl oxidases; 1.69333e-10, pre-incubation 15 min",104.086
same,Fig. 2B activity,"lysyl oxidases; 1.69333e-10, pre-incubation 30 min",108.652
same,Fig. 2B activity,"lysyl oxidases; 1.69333e-10, pre-incubation 1 h",105.245
same,Fig. 2B activity,"lysyl oxidases; 1.69333e-10, pre-incubation 2 h",105.759
same,Fig. 2B activity,"lysyl oxidases; 1.69333e-10, pre-incubation 4 h",111.637
same,Fig. 2B activity,"lysyl oxidases; 5.08e-10, pre-incubation 0 min",102.267
same,Fig. 2B activity,"lysyl oxidases; 5.08e-10, pre-incubation 15 min",101.228
same,Fig. 2B activity,"lysyl oxidases; 5.08e-10, pre-incubation 30 min",106.873
same,Fig. 2B activity,"lysyl oxidases; 5.08e-10, pre-incubation 1 h",98.3282
same,Fig. 2B activity,"lysyl oxidases; 5.08e-10, pre-incubation 2 h",107.568
same,Fig. 2B activity,"lysyl oxidases; 5.08e-10, pre-incubation 4 h",110.707
same,Fig. 2B activity,"lysyl oxidases; 1.52e-9, pre-incubation 0 min",101.124
same,Fig. 2B activity,"lysyl oxidases; 1.52e-9, pre-incubation 15 min",102.218
same,Fig. 2B activity,"lysyl oxidases; 1.52e-9, pre-incubation 30 min",107.03
same,Fig. 2B activity,"lysyl oxidases; 1.52e-9, pre-incubation 1 h",103.614
same,Fig. 2B activity,"lysyl oxidases; 1.52e-9, pre-incubation 2 h",102.685
same,Fig. 2B activity,"lysyl oxidases; 1.52e-9, pre-incubation 4 h",110.751
same,Fig. 2B activity,"lysyl oxidases; 4.57e-9, pre-incubation 0 min",99.5583
same,Fig. 2B activity,"lysyl oxidases; 4.57e-9, pre-incubation 15 min",100.144
same,Fig. 2B activity,"lysyl oxidases; 4.57e-9, pre-incubation 30 min",103.756
same,Fig. 2B activity,"lysyl oxidases; 4.57e-9, pre-incubation 1 h",101.013
same,Fig. 2B activity,"lysyl oxidases; 4.57e-9, pre-incubation 2 h",107.904
same,Fig. 2B activity,"lysyl oxidases; 4.57e-9, pre-incubation 4 h",105.302
same,Fig. 2B activity,"lysyl oxidases; 1.37e-8, pre-incubation 0 min",96.8423
same,Fig. 2B activity,"lysyl oxidases; 1.37e-8, pre-incubation 15 min",98.2429
same,Fig. 2B activity,"lysyl oxidases; 1.37e-8, pre-incubation 30 min",101.141
same,Fig. 2B activity,"lysyl oxidases; 1.37e-8, pre-incubation 1 h",101.758
same,Fig. 2B activity,"lysyl oxidases; 1.37e-8, pre-incubation 2 h",104.569
same,Fig. 2B activity,"lysyl oxidases; 1.37e-8, pre-incubation 4 h",105.34
same,Fig. 2B activity,"lysyl oxidases; 4.12e-8, pre-incubation 0 min",98.5025
same,Fig. 2B activity,"lysyl oxidases; 4.12e-8, pre-incubation 15 min",98.7481
same,Fig. 2B activity,"lysyl oxidases; 4.12e-8, pre-incubation 30 min",99.9026
same,Fig. 2B activity,"lysyl oxidases; 4.12e-8, pre-incubation 1 h",99.6216
same,Fig. 2B activity,"lysyl oxidases; 4.12e-8, pre-incubation 2 h",100.024
same,Fig. 2B activity,"lysyl oxidases; 4.12e-8, pre-incubation 4 h",98.7222
same,Fig. 2B activity,"lysyl oxidases; 1.23e-7, pre-incubation 0 min",98.6918
same,Fig. 2B activity,"lysyl oxidases; 1.23e-7, pre-incubation 15 min",98.1432
same,Fig. 2B activity,"lysyl oxidases; 1.23e-7, pre-incubation 30 min",101.367
same,Fig. 2B activity,"lysyl oxidases; 1.23e-7, pre-incubation 1 h",90.8141
same,Fig. 2B activity,"lysyl oxidases; 1.23e-7, pre-incubation 2 h",90.2595
same,Fig. 2B activity,"lysyl oxidases; 1.23e-7, pre-incubation 4 h",86.2099
same,Fig. 2B activity,"lysyl oxidases; 3.7e-7, pre-incubation 0 min",96.5147
same,Fig. 2B activity,"lysyl oxidases; 3.7e-7, pre-incubation 15 min",94.9326
same,Fig. 2B activity,"lysyl oxidases; 3.7e-7, pre-incubation 30 min",97.5329
same,Fig. 2B activity,"lysyl oxidases; 3.7e-7, pre-incubation 1 h",85.2822
same,Fig. 2B activity,"lysyl oxidases; 3.7e-7, pre-incubation 2 h",74.251
same,Fig. 2B activity,"lysyl oxidases; 3.7e-7, pre-incubation 4 h",62.6684
same,Fig. 2B activity,"lysyl oxidases; 1.11e-6, pre-incubation 0 min",94.3157
same,Fig. 2B activity,"lysyl oxidases; 1.11e-6, pre-incubation 15 min",89.9671
same,Fig. 2B activity,"lysyl oxidases; 1.11e-6, pre-incubation 30 min",87.3566
same,Fig. 2B activity,"lysyl oxidases; 1.11e-6, pre-incubation 1 h",64.8977
same,Fig. 2B activity,"lysyl oxidases; 1.11e-6, pre-incubation 2 h",45.9612
same,Fig. 2B activity,"lysyl oxidases; 1.11e-6, pre-incubation 4 h",15.2083
same,Fig. 2B activity,"lysyl oxidases; 3.33e-6, pre-incubation 0 min",92.0439
same,Fig. 2B activity,"lysyl oxidases; 3.33e-6, pre-incubation 15 min",82.8346
same,Fig. 2B activity,"lysyl oxidases; 3.33e-6, pre-incubation 30 min",63.1887
same,Fig. 2B activity,"lysyl oxidases; 3.33e-6, pre-incubation 1 h",32.0154
same,Fig. 2B activity,"lysyl oxidases; 3.33e-6, pre-incubation 2 h",13.0848
same,Fig. 2B activity,"lysyl oxidases; 3.33e-6, pre-incubation 4 h",1.062
same,inhibition of the least sensitive lysyl oxidase,"lysyl oxidases; 10 µM, after 2 h",complete inhibition
same,Fig. 2B activity,"lysyl oxidases; 1e-5, pre-incubation 0 min",71.7944
same,Fig. 2B activity,"lysyl oxidases; 1e-5, pre-incubation 15 min",51.1738
same,Fig. 2B activity,"lysyl oxidases; 1e-5, pre-incubation 30 min",24.7148
same,Fig. 2B activity,"lysyl oxidases; 1e-5, pre-incubation 1 h",3.779
same,Fig. 2B activity,"lysyl oxidases; 1e-5, pre-incubation 2 h",2.199
same,Fig. 2B activity,"lysyl oxidases; 1e-5, pre-incubation 4 h",0.1194
same,Fig. 2B activity,"lysyl oxidases; 3e-5, pre-incubation 0 min",46.8993
same,Fig. 2B activity,"lysyl oxidases; 3e-5, pre-incubation 15 min",20.2974
same,Fig. 2B activity,"lysyl oxidases; 3e-5, pre-incubation 30 min",5.217
same,Fig. 2B activity,"lysyl oxidases; 3e-5, pre-incubation 1 h",1.087
same,Fig. 2B activity,"lysyl oxidases; 3e-5, pre-incubation 2 h",2.027
same,Fig. 2B activity,"lysyl oxidases; 3e-5, pre-incubation 4 h",-1.502
same,% Inh.,[1],24%
NC/C=C(\F)C(F)(F)S(=O)(=O)c1ccccc1 [PXS-6302],% Inh.,Potassium Channel [KA],2%
same,inhibition at 30 µM,Vasopressin V1A,3%
same,inhibition at 30 µM,hERG potassium channel,29%
